Assay results published in patent US4965280A, “Antifungal carbinols” (E. I. Du Pont de Nemours and Company, priority 1989, dated 1990).
≈ marks a conversion by molar mass, not a printed value.

How the values were obtained:
Venturia inaequalis = test: Example A apple scab; format: in vivo; conditions: read-out: disease control rating, Ex. A
Method in brief: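 First, compounds are taken up in acetone amounting to 6% of the final volume. Next, they are suspended in purified water with 250 ppm TREM 014 at 100 or 20 ppm. Finally, seedlings of apple are sprayed until run-off.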

[1] = test system: Cercosporidium personatum; test: Example B Peanut Late Leafspot; format: in vivo; conditions: Nothopassalora personata, read-out: disease control rating, Ex. B
Method in brief: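 Dose 100 or 20 ppm; vehicle acetone 6% v/v final in water + 250 ppm surfactant; applied by spraying peanut seedlings to run-off.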

[2] = test system: Erysiphe graminis f. sp. tritici; test: Example D wheat powdery mildew; format: in vivo; conditions: Blumeria graminis, 144 h, read-out: disease control rating, Ex. D
Method in brief: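 First, compound taken up in acetone, 6% of the end volume. Next, suspended in water with 250 ppm polyhydric alcohol esters at 100 or 20 ppm. Last, applied to wheat seedlings until run-off.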

Pyricularia oryzae = test: whole plant or invertebrate; format: in vivo; conditions: Pyricularia oryzae, 120 h; for pest or weed control at 100 ppm: read-out: disease control rating, Ex. E, 100 PPM
Rhizoctonia solani [3] = test: Example F rice sheath blight; format: in vivo; conditions: Rhizoctonia solani, 144 h, read-out: disease control rating, Ex. F
Method in brief: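 Application rates were 100 or 20 ppm, delivered as a foliar spray to the point of run-off on rice seedlings. The formulation used 6% acetone in water with 250 ppm surfactant.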

Puccinia recondita = test: Example G wheat leaf rust; format: in vivo; conditions: read-out: disease control rating, Ex. G
Phytophthora infestans = test: whole plant or invertebrate; format: in vivo; conditions: Phytophthora infestans, in Solanum lycopersicum, read-out: disease control rating, Ex. H, 100 PPM
Plasmorpara viticola = test: Example I grape downy mildew; format: in vivo; conditions: read-out: disease control rating, Ex. I
Method in brief: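 Grape seedlings sprayed to run-off; test suspension 100 or 20 ppm compound, acetone 6% v/v final, 250 ppm TREM 014 in purified water.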

Pythium aphanadermatum = test: Example J cucumber damping off; format: in vivo; conditions: Pythium, 336 h; 5 kg/ha; read-out: disease control rating, Ex. J
Method in brief: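 This cucumber damping-off test used soil and seeds infested with a sand–cereal preparation carrying mycelium of Pythium aphanadermatum. Incubation took place in a growth chamber held at 30° C. for 14 days. Afterwards, the extent of disease was scored as a disease control rating.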

Rhizoctonia solani [4] = test: Example K cotton blight; format: in vivo; conditions: 336 h, 5 kg/ha, read-out: disease control rating, Ex. K
Protocol: […] Seeds and soil were then inoculated with a mixture of sand, cereal and mycelium of the fungus Rhizoctonia solani, causal agent of cotton blight, and incubated in a growth chamber at 30° C. for 14 days. Disease ratings were then made.

[5] = test system: Fusarium oxysporum f. sp. cucumerinum; test: Example L cucumber wilt; format: in vivo; conditions: 336 h, 5 kg/ha, read-out: disease control rating, Ex. L
Protocol: […] Seeds and soil were then inoculated with a mixture of sand, cereal and mycelium of the fungus Fusarium oxysporum f. sp. cucumerinum, causal agent of cucumber wilt, and incubated in a growth chamber at 30° C. for 14 days. Disease ratings were then made.

BARNYARDGRASS = test: Test C rice paddy; format: in vivo, Echinochloa crusgalli; conditions: Echinochloa crus-galli, 504 h, 21 days, read-out: plant response; for pest or weed control at 64 g/ha: 0064 G/HA; for pest or weed control at 125 g/ha: 0125 G/HA; for pest or weed control at 250 g/ha: 0250 G/HA; for pest or weed control at 500 g/ha: 0500 G/HA
Excerpt: (§1) Sixteen cm diameter Airlite plastic pots were partially filled with Tama slit loam soil and the soil saturated with water. Japonica and Indica rice seedlings a the 2.0 to 2.5 leaf stage were transplanted into 1/3 of the pots. Into another third of the pots were transplanted seedling or sprouted tubers of water plantain (Alisma trivale), Scripus (Scirpus paludosus), Cyperus (Cyperus esculentus), and arrowhead (Sagittaria spp.). The remaining pots were planted with barnyardgrass (Echinochloa crusgalli) seeds and sprouted tubes of water chestnut (Eleocharis spp.). These weeds all represent major rice weeds or genera of weeds important in rice. Three to four days after planting, the water level was raised to 3 cm (about 1200 ml/pot) and maintained a this level throughout the test. Chemical treatments were applied directly to the paddy water, within 24 hours of raising the water, after being formulated in a nonphytotoxic solvent. The pots were maintained in the greenhouse.

ARROWHEAD = test: Test C rice paddy; format: in vivo, Sagittaria spp.; conditions: Sagittaria, 504 h, 21 days, read-out: plant response; for pest or weed control at 64 g/ha: 0064 G/HA; for pest or weed control at 125 g/ha: 0125 G/HA; for pest or weed control at 250 g/ha: 0250 G/HA; for pest or weed control at 500 g/ha: 0500 G/HA
Excerpt: as §1

WATER PLAINTAIN = test: Test C rice paddy; format: in vivo, Alisma trivale; conditions: 504 h, 21 days, read-out: plant response; for pest or weed control at 64 g/ha: 0064 G/HA; for pest or weed control at 125 g/ha: 0125 G/HA; for pest or weed control at 250 g/ha: 0250 G/HA; for pest or weed control at 500 g/ha: 0500 G/HA
Excerpt: as §1

[6] = test system: Aspergillus fumigatus ATCC 28214; test: In vitro antifungal MIC, microtiter broth dilution; conditions: Aspergillus fumigatus, ATCC28214, 24 h, read-out: MIC values, A. fumigatus, 30°, 24 hours

Compound: C=C(c1ccccc1Cl)C(O)(Cn1cncn1)c1ccc(Cl)cc1Cl (stereo not shown) [Example 33, 2-(2,4-Dichlorophenyl)-3-(2-chlorophenyl)-1-(1H-1,2,4-triazol-1-yl)-3-buten-2-ol]
- pest or weed control at 20 ppm (Venturia inaequalis; 20 PPM): 47%
- pest or weed control at 20 ppm ([1]; 20 PPM): 99%
- pest or weed control at 20 ppm ([2]; 20 PPM): 89%
- pest or weed control at 20 ppm (Pyricularia oryzae; read-out: disease control rating, Ex. E, 20 PPM): 0%
- pest or weed control at 100 ppm (Pyricularia oryzae): 0%
- pest or weed control at 20 ppm (Rhizoctonia solani [3]; 20 PPM): 29%
- pest or weed control at 100 ppm (Rhizoctonia solani [3]): 60%
- pest or weed control at 20 ppm (Puccinia recondita; 20 PPM): 100%
- pest or weed control at 100 ppm (Phytophthora infestans): 0%
- pest or weed control at 100 ppm (Plasmorpara viticola): 24%
- pest or weed control at 5000 g/ha (Pythium aphanadermatum): 0%
- pest or weed control at 5000 g/ha (Rhizoctonia solani [4]): 0%
- pest or weed control at 5000 g/ha [5]: 0%
- pest or weed control at 64 g/ha (BARNYARDGRASS): 0%
- pest or weed control at 125 g/ha (BARNYARDGRASS): 10%
- pest or weed control at 250 g/ha (BARNYARDGRASS): 80%
- pest or weed control at 500 g/ha (BARNYARDGRASS): 70%
- pest or weed control at 1000 g/ha (BARNYARDGRASS): 95%
- pest or weed control at 64 g/ha (ARROWHEAD): 0%
- pest or weed control at 125 g/ha (ARROWHEAD): 0%
- pest or weed control at 250 g/ha (ARROWHEAD): 0%
- pest or weed control at 500 g/ha (ARROWHEAD): 0%
- pest or weed control at 1000 g/ha (ARROWHEAD): 0%
- pest or weed control at 64 g/ha (WATER PLAINTAIN): 0%
- pest or weed control at 125 g/ha (WATER PLAINTAIN): 0%
- pest or weed control at 250 g/ha (WATER PLAINTAIN): 0%
- pest or weed control at 500 g/ha (WATER PLAINTAIN): 0%
- pest or weed control at 1000 g/ha (WATER PLAINTAIN): 0%
- MIC [6]: 0.03 µg/mL (≈ 0.076 µM)

Compound: C=C(c1ccccc1Cl)C(O)(Cn1cncn1)c1ccc(F)cc1F (stereo not shown) [Example 35]
- pest or weed control at 100 ppm (Venturia inaequalis): 100%
- pest or weed control at 100 ppm [1]: 100%
- pest or weed control at 100 ppm [2]: 100%
- pest or weed control at 100 ppm (Pyricularia oryzae): 0%
- pest or weed control at 100 ppm (Rhizoctonia solani [3]): 100%
- pest or weed control at 100 ppm (Puccinia recondita): 96%
- pest or weed control at 100 ppm (Phytophthora infestans): 0%
- pest or weed control at 100 ppm (Plasmorpara viticola): 26%
- pest or weed control at 5000 g/ha (Pythium aphanadermatum): 0%
- pest or weed control at 5000 g/ha (Rhizoctonia solani [4]): 0%
- pest or weed control at 5000 g/ha [5]: 0%
- pest or weed control at 64 g/ha (BARNYARDGRASS): 70%
- pest or weed control at 125 g/ha (BARNYARDGRASS): 100%
- pest or weed control at 250 g/ha (BARNYARDGRASS): 80%
- pest or weed control at 500 g/ha (BARNYARDGRASS): 100%
- pest or weed control at 1000 g/ha (BARNYARDGRASS): 95%
- pest or weed control at 64 g/ha (ARROWHEAD): 0%
- pest or weed control at 125 g/ha (ARROWHEAD): 0%
- pest or weed control at 250 g/ha (ARROWHEAD): 40%
- pest or weed control at 500 g/ha (ARROWHEAD): 50%
- pest or weed control at 1000 g/ha (ARROWHEAD): 95%
- pest or weed control at 64 g/ha (WATER PLAINTAIN): 0%
- pest or weed control at 125 g/ha (WATER PLAINTAIN): 0%
- pest or weed control at 250 g/ha (WATER PLAINTAIN): 40%
- pest or weed control at 500 g/ha (WATER PLAINTAIN): 40%
- pest or weed control at 1000 g/ha (WATER PLAINTAIN): 60%
- MIC [6]: 0.1 µg/mL (≈ 0.276 µM)

Compound: C=C(c1ccc(F)cc1)C(O)(Cn1ncnc1I)c1ccc(F)cc1F (stereo not shown) [Example 1381]
- pest or weed control at 100 ppm (Venturia inaequalis): 100%
- pest or weed control at 100 ppm [1]: 100%
- pest or weed control at 100 ppm [2]: 98%
- pest or weed control at 100 ppm (Pyricularia oryzae): 51%
- pest or weed control at 100 ppm (Rhizoctonia solani [3]): 73%
- pest or weed control at 100 ppm (Puccinia recondita): 100%
- pest or weed control at 100 ppm (Phytophthora infestans): 0%
- pest or weed control at 100 ppm (Plasmorpara viticola): 78%
- pest or weed control at 5000 g/ha (Pythium aphanadermatum): 0%
- pest or weed control at 5000 g/ha (Rhizoctonia solani [4]): 50%
- pest or weed control at 5000 g/ha [5]: 0%
- pest or weed control at 64 g/ha (BARNYARDGRASS): 55%
- pest or weed control at 125 g/ha (BARNYARDGRASS): 55%
- pest or weed control at 250 g/ha (BARNYARDGRASS): 60%
- pest or weed control at 500 g/ha (BARNYARDGRASS): 100%
- pest or weed control at 1000 g/ha (BARNYARDGRASS): 100%
- pest or weed control at 64 g/ha (ARROWHEAD): 0%
- pest or weed control at 125 g/ha (ARROWHEAD): 0%
- pest or weed control at 250 g/ha (ARROWHEAD): 0%
- pest or weed control at 500 g/ha (ARROWHEAD): 0%
- pest or weed control at 1000 g/ha (ARROWHEAD): 0%
- pest or weed control at 64 g/ha (WATER PLAINTAIN): 0%
- pest or weed control at 125 g/ha (WATER PLAINTAIN): 0%
- pest or weed control at 250 g/ha (WATER PLAINTAIN): 0%
- pest or weed control at 500 g/ha (WATER PLAINTAIN): 0%
- pest or weed control at 1000 g/ha (WATER PLAINTAIN): 0%
